Data on 19 compounds can be found in patent US7956216B2, “Alpha-helical mimetics” (The Walter and Eliza Hall Institute of Medical Research, priority 2006, dated 2011).

Read-outs that look alike come from different tables or passages of the source.

Assay [1] has as its target T1, GST tagged Bclw ΔC29 protein (Homo sapiens, UniProt Q92843).
T1 construct: GST tagged Bclw ΔC29 protein
T1 sequence (Q92843 1-164 limits assumed): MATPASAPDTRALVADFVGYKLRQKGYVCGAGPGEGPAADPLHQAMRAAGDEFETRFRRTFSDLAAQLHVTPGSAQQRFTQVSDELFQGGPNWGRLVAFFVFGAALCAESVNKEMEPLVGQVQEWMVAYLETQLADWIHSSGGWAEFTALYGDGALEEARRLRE
Put plainly: Alphascreen GST competition assay, Bcl-w vs biotinylated Bim BH3-26 peptide. The assay is classed as binding. The conditions noted are these: for IC50: read-out: Bcl-wΔ29 IC50.

Assay [2] has as its target T2, GST tagged Bcl-xL ΔC25 protein (Homo sapiens, UniProt Q07817).
T2 construct: GST tagged Bcl-xL ΔC25 protein
Description: Alphascreen GST competition assay, Bcl-xL vs biotinylated Bim BH3-26 peptide. The conditions noted are these: competition with biotinylated Bim BH3-26 peptide (5.0 nM), Bcl-xL 0.6 nM, n.b. = not binding in the assay conditions; for IC50: read-out: Bcl-xLΔ25 IC50. (In general: Alpha assays give light when donor and acceptor beads are brought close together.)

Assay [3] has as its target GST tagged Mcl-1 protein (Homo sapiens, UniProt Q07820). Description: Alphascreen GST competition assay, Mcl-1 vs biotinylated Bak BH3 peptide. The settings on record: competition with biotinylated Bak BH3 peptide (4.0 nM), Mcl-1 0.4 nM; n.b. = not binding in the assay conditions.
Where [4] appears, read: footnote a: tested in a separate experiment.
The mark [5] stands for this setting: competition with biotinylated Bim BH3-26 peptide (3.0 nM), Bcl-w 0.05 nM, n.b. = not binding in the assay conditions.

Sequence of GST tagged Mcl-1 protein (Q07820 whole entry): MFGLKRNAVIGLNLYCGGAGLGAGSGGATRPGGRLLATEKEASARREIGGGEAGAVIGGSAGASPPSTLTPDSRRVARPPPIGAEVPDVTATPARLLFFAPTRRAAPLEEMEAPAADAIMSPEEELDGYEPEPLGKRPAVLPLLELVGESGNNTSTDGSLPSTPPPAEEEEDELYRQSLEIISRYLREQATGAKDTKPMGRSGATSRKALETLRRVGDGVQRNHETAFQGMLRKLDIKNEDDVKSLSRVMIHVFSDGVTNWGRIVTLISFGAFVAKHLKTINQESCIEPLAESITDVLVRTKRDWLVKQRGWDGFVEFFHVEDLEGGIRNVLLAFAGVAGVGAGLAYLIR
T2 sequence (Q07817 1-208 limits assumed): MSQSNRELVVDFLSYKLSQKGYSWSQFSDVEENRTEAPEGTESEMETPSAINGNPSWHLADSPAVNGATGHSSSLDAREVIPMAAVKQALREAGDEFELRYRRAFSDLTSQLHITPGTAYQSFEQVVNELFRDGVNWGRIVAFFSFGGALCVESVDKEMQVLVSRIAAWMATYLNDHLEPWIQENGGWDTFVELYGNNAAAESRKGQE

Broadly, the IC50 is the concentration at which inhibition is half-maximal. With `O=C(O)[C@H](CSCc1ccccc1)NC(=O)N(CC1CCCCC1)C(=O)c1cccc(-c2ccccc2)c1` [(9)], the IC50 in assay [1] (setting [4]) is 14 µM.

Turning to `O=C(O)[C@H](CSCc1ccccc1)NC(=O)N(C(=O)c1cccc(-c2ccccc2)c1)C1CCCCC1` [(10)], the IC50 in assay [1] (setting [4]) worked out at 26 µM.

For the compound `CC(C)CCN(C(=O)N[C@@H](CSCc1ccccc1)C(=O)O)C(=O)c1ccc(-c2ccccc2)cc1` [(42)], the IC50 in assay [1] (setting [5]) is 49 µM.

For `CCCN(C(=O)NCC(=O)O)C(=O)c1cccc(-c2ccccc2)c1` [(71)], the “Bcl-wΔ29 IC50 (μM)” value in assay [1] (setting [5]) is listed as “n.b.^b”.

`O=C([C@H](CSCc1ccccc1)NC(=O)N(Cc1cccc2ccccc12)C(=O)c1cccc(-c2ccc(F)cc2)c1)N1CCOCC1` [(72)]: the “Bcl-wΔ29 IC50 (μM)” value in assay [1] (setting [5]) is given as “n.b.^b”.

Consider `O=C(O)[C@H](CSCc1ccccc1)NC(=O)N(Cc1ccc(Cl)c(Cl)c1)C(=O)c1ccc(-c2ccccc2)cc1` [(85)], for which, in assay [2], the “Bcl-xLΔ25 IC50 (μM)” value is reported as “n.b.^b”.

Regarding `CCCN(C(=O)N[C@@H](CSCc1ccccc1)C(=O)O)C(=O)c1ccc(/C=C/c2ccccc2)cc1` [(86)], the “Mcl-1 IC50 (μM)” value in assay [3] is on record as “n.b.^b”.

For the compound `CCCN(C(=O)N[C@@H](CSCc1ccccc1)C(=O)O)C(=O)c1cccc(/C=C/c2ccccc2)c1` [(87)], the IC50 in assay [3] stood at 161 µM; in assay [1] (setting [5]), 99 µM; in assay [2], 151 µM.

In the case of `CCCN(C(=O)N[C@@H](CSCc1ccccc1)C(=O)O)C(=O)c1cccc(CCc2ccccc2)c1` [(88)], the IC50 in assay [3] was 154 µM; in assay [1] (setting [5]), 49 µM; in assay [2], 51 µM.

Take `CCCN(C(=O)N[C@@H](CSC(C)C)C(=O)O)C(=O)c1cccc(C#Cc2ccccc2)c1` [(92)]: the “Mcl-1 IC50 (μM)” value in assay [3] is recorded as “n.b.^b”.

As to `CCCN(C(=O)N[C@@H](CSCCCc1ccccc1)C(=O)O)C(=O)c1cccc(C#Cc2ccccc2)c1` [(95)], the IC50 amounted to 94 µM in assay [3], 35 µM in assay [1] (setting [5]) and 73 µM in assay [2].

In the case of `CCCN(C(=O)CCCc1ccccc1)C(=O)N[C@@H](CSCc1ccccc1)C(=O)O` [(106)], the IC50 in assay [3] worked out at 251 µM; in assay [1] (setting [5]), 102 µM; in assay [2] it was 182 µM.

In the case of `CCCN(C(=O)N[C@@H](CSCc1ccc(OC)cc1)C(=O)O)C(=O)c1cccc(C#Cc2ccccc2)c1` [(115)], in assay [2], the IC50 was determined as 32 µM.

Take `CCCN(C(=O)N[C@@H](CSCC(C)CC)C(=O)O)C(=O)c1cccc(C#Cc2ccccc2)c1` (stereo partly shown) [(125)]: in assay [2], the IC50 amounted to 44 µM.

On to `CCCN(C(=O)N[C@@H](CSCc1ccccc1)C(=O)O)C(=O)c1cccc(C#Cc2ccc(Br)cc2)c1` [(134)], for which the IC50 in assay [3] stood at 181 µM; in assay [2], 51 µM.

Regarding `CCCN(C(=O)N[C@@H](CSCC(C)C)C(=O)O)C(=O)c1cccc(C#Cc2cccc(F)c2)c1` [(140)], the “Mcl-1 IC50 (μM)” value in assay [3] is listed as “n.b.^b”.

Regarding `CCCN(C(=O)N[C@@H](CSCC(C)C)C(=O)O)C(=O)c1cccc(C#Cc2ccccc2OC)c1` [(146)], the “Mcl-1 IC50 (μM)” value in assay [3] was “n.b.^b”.

Regarding `CCCN(C(=O)N[C@@H](CSCC(C)C)C(=O)O)C(=O)c1cccc(C#Cc2ccncc2)c1` [(150)], the “Bcl-xLΔ25 IC50 (μM)” value in assay [2] was “n.b.^b”.

Consider `CCCN(C(=O)N[C@@H](CSCC(C)C)C(=O)NS(=O)(=O)c1cccc(-c2ccccc2)c1)C(=O)c1cccc(C#Cc2ccccc2)c1` [(155)], for which the IC50 in assay [2] was 53 µM.
